Results taken from patent US20120065365A1, “Stable Radiopharmaceutical Compositions and Methods for Their Preparation” (BRACCO IMAGING S.P.A., priority 2003, published 2012).
Where a name gives a salt, the structure may show the parent alone.

Legend:
[1] = assay type: physicochemical; details: for RCP % t = 0 h: ^177Lu-A (5.28 mCi avg) prepared in presence of stabilizer 3.33 mg/mL; for RCP (%) t = 72 h: ^177Lu-A prepared and stored in presence of stabilizer 3.33 mg/mL, room temperature
Procedure: 10 mg/mL solutions of thiamine hydrochloride and L-glutathione were prepared by disserving them in water. 10 mg/mL solutions of 3-hydroxycinnamic acid, 4-hydroxyantipyrine and acetylsalicylic acid were prepared by dissolving them in 50% EtOH/water. 10 mg/mL solutions of 2-hydroxybenzothiazole and 2,1,3-benzothiadiazole were prepared by dissolving them in EtOH.

[2] = Radiostability (RCP, Met═O by HPLC) of preformed ^177Lu-A with individual amino acids added (Example 1); assay type: physicochemical; details: amino acid 6.6 mg/mL, room temperature; for 0-1 h RCP (%): ^177Lu-A ~20 mCi/mL (3.5 mCi total); for 24-h RCP (%) / 48-h RCP (%): ^177Lu-A ~20 mCi/mL
Procedure: The injection volume was 20 μL.
Solutions of the individual amino acids L-Methionine, L-Selenomethionine, L-cysteine HCl.H2O, L-Tryptophan, L-Histidine, and Glycine were prepared at a concentration of 10 mg/mL in 10 mM Dulbecco's phosphate-buffered saline, pH 7.0 [PBS].
The final radioactive concentration of each sample was ˜20 mCi/mL.

Row | SMILES | RCP % t = 0 h [1] [%] | RCP (%) t = 72 h [1] [%] | 0-1 h RCP (%) [2] [%] | 24-h RCP (%) [2] [%] | 48-h RCP (%) [2] [%]
1 | Cc1c(O)c(=O)n(-c2ccccc2)n1C [4-Hydroxyantipyrine] | 99.9 | 0 | – | – | –
2 | c1ccc2nsnc2c1 [2,1,3-Benzothiadiazole] | 98.6 | 3.1 | – | – | –
3 | O=C(O)/C=C/c1cccc(O)c1 [3-Hydroxycinnamic acid] | 96.6 | 0 | – | – | –
4 | CC(=O)Oc1ccccc1C(=O)O [Acetylsalicylic acid, Acetylsalicyclic acid, reference compound] | 73.0 | 0 | – | – | –
5 | Oc1nc2ccccc2s1 [2-Hydroxybenzothiazole] | 96.2 | 9.6 | – | – | –

More lines, now with the values ahead:

Row | RCP % t = 0 h [1] [%] | RCP (%) t = 72 h [1] [%] | 0-1 h RCP (%) [2] [%] | 24-h RCP (%) [2] [%] | 48-h RCP (%) [2] [%] | SMILES
6 | – | – | 96.4 | 14.6 | 0 | NCC(=O)O [Glycine]
7 | – | – | 92.5 | 4.6 | 0 | N[C@@H](Cc1c[nH]cn1)C(=O)O [Histidine, L-Histidine]
8 | 97.0 | 0 | – | – | – | Cc1ncc(C[n+]2csc(CCO)c2C)c(N)n1 [Thiamine hydrochloride, reference compound]
9 | – | – | 95.5 | 51.4 | 18.2 | N[C@@H](Cc1c[nH]c2ccccc12)C(=O)O [Tryptophan, L-Tryptophan]
10 | 91.1 | 0 | – | – | – | N[C@@H](CCC(=O)N[C@@H](CS)C(=O)NCC(=O)O)C(=O)O [L-Glutathione, L-Glutathione, reduced]
